The values that follow come from patent publication US20060063784A1, “Method of using substituted pyrazolo [1,5-a] pyrimidines” (priority 2004, published 2006).

Where only a bound is given, the exact number is not on record here.

One assay has as its system 80S14 (p21-deficient) cells. The assay is described as follows: Cytotoxicity assay using isogenic cell lines: IC50 in 80S14 (p21-deficient) cells, SRB. To be noted: 80S14 p21-deficient cells, 5 days incubation, SRB; read-out: IC50 for 80SI4. It counts as cell-based, human. An outline of the steps:
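80S14 (p21-deficient) cells seeded at 12,000 cells/well overnight, then exposed 5 days at 37 °C to serial dilutions (5 pM–50 μM or 170 pg/ml–10 μg/ml). TCA-fixed, sulforhodamine B-stained, absorbance at 560 nm; IC50 taken from cytotoxicity curves versus untreated controls.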
For the compound `CCNC(=O)NCC(=O)Nc1cccc(-c2ccnc3c(C(=O)c4cccs4)cnn23)c1` [Example 137, N-2-[(ethylamino)carbonyl]-N-1-{3-[3-(thien-2-ylcarbonyl)pyrazolo[1,5-a]pyrimidin-7-yl]phenyl}glycinamide], the IC50 was 1 to 10 µM.

With `CC(C)(C)C(=O)NCC(=O)Nc1cccc(-c2ccnc3c(C(=O)c4cccs4)cnn23)c1` [Example 132], the 50% inhibitory concentration (IC50) is 1 to 10 µM.

Take `CC(C)C[C@H](N)C(=O)Nc1cccc(-c2ccnc3c(C(=O)c4cccs4)cnn23)c1` [Example 80, N-1-{3-[3-(thien-2-ylcarbonyl)pyrazolo[1,5-a]pyrimidin-7-yl]phenyl}-L-leucinamide]: the IC50 is 1 to 10 µM.

As to `CC(C)[C@H](N)C(=O)Nc1cccc(-c2ccnc3c(C(=O)c4cccs4)cnn23)c1` [Example 83, N-1-{3-[3-(thien-2-ylcarbonyl)pyrazolo[1,5-a]pyrimidin-7-yl]phenyl}-L-valinamide], the IC50 is 1 to 10 µM.

The same assay, now with this note: Homo sapiens, 80S14, 120 h, read-out: IC50 for 80S14 (uM).
With `Cc1ccc(-c2ccnc3c(C(=O)c4cccs4)cnn23)cc1NC(=O)CC(C)C` [Example 310, 3-Methyl-N-{2-methyl-5-[3-(2-thienylcarbonyl)pyrazolo[1,5-a]pyrimidin-7-yl]phenyl}butanamide], the IC50 was 1 to 10 µM.

The same assay, now with this note: Homo sapiens, 80S14, 120 h, read-out: IC50 for 80SI4 (uM).
In the case of `CCCC(C)C(=O)Nc1cccc(-c2ccnc3c(C(=O)c4cccs4)cnn23)c1` (stereo not drawn) [Example 154, 2-methyl-N-{3-[3-(thien-2-ylcarbonyl)pyrazolo[1,5-a]pyrimidin-7-yl]phenyl}pentanamide], the IC50 was less than 1 µM.

The assay is the same for the next values; noted with them: Homo sapiens, 120 h; 80S14 (p21-deficient) cells, 5 days, SRB; class symbols; read-out: IC50 for 80S14.
In the case of `CN(C)c1ccc(-c2ccnc3c(C(=O)c4cccs4)cnn23)cc1NC(=O)c1ccncc1` [Example 428, N-{2-(Dimethylamino)-5-[3-(thien-2-ylcarbonyl)pyrazolo[1,5-a]pyrimidin-7-yl]phenyl}isonicotinamide], the half-inhibitory concentration (IC50) lay in the range of 1 to 10 µM.

Consider `Nc1cccc(-c2ccnc3c(Br)cnn23)c1` [Example 326, 3-(3-Bromopyrazolo[1,5-a]pyrimidin-7-yl)aniline], for which the 50% inhibitory concentration (IC50) was 10 to 50 µM.

Take `O=C(c1ccco1)c1cnn2c(-c3cccc(N4CCCC4=O)c3)ccnc12` [Example 228, 1-[3-[3-(2-Furanylcarbonyl)pyrazolo-[1,5-a]pyrimidin-7-yl]phenyl]-2-pyrrolidinone]: the IC50 is 10 to 50 µM.

For `O=C(Nc1ccccc1)c1cccc(-c2ccnc3c(C(=O)c4cccs4)cnn23)c1` [Example 321, N-Phenyl-3-[3-(2-thienylcarbonyl)pyrazolo[1,5-a]pyrimidin-7-yl]benzamide], the half-maximal inhibitory concentration (IC50) is less than 1 µM.

Take `CCN(C(=O)C1CC1)c1cccc(-c2ccnc3ccnn23)c1` [Example 254, N-Ethyl-N-(3-pyrazolo[1,5-a]pyrimidin-7-ylphenyl)-cyclopropanecarboxamide]: the IC50 is 10 to 50 µM.

As to `COc1ccc(-c2ccnc3c(C(=O)c4cccs4)cnn23)cc1NC(=O)CC(C)C` [Example 317, N-{2-Methoxy-5-[3-(2-thienylcarbonyl)pyrazolo[1,5-a]pyrimidin-7-yl]phenyl}-3-methylbutanamide], the half-maximal inhibitory concentration (IC50) was 1 to 10 µM.

Consider `CCN(C(=O)C1CC1)c1cccc(-c2ccnc3c(C(=O)c4ccccc4)cnn23)c1` [Example 253, N-[3-(3-Benzoylpyrazolo[1,5-a]pyrimidin-7-yl)phenyl]-N-ethyl-cyclopropanecarboxamide], for which the half-maximal inhibitory concentration (IC50) lay in the range of 10 to 50 µM.

In the case of `O=C(c1ccccn1)c1cnn2c(-c3cccc(NC(=O)C4CC4)c3)ccnc12` [Example 337, N-{3-[3-(Pyridin-2-ylcarbonyl)pyrazolo[1,5-a]pyrimidin-7-yl]phenyl}cyclopropanecarboxamide], the half-inhibitory concentration (IC50) was in the range of 10 to 50 µM.

Take `CNc1cccc(-c2ccnc3c(C(=O)c4ccccc4)cnn23)c1` [Example 231, [7-[3-(Methylamino)phenyl]pyrazolo[1,5-a]-pyrimidin-3-yl}phenyl-methanone]: the IC50 was in the range of 10 to 50 µM.

On to `O=C(c1cccs1)c1cnn2c(-c3cccc(NC/C=C/c4ccccc4)c3)ccnc12` [Example 412, [7-(3-{[(2E)-3-Phenylprop-2-enyl]amino}phenyl)pyrazolo[1,5-a]pyrimidin-3-yl] (thien-2-yl)methanone], for which the IC50 lay in the range of 10 to 50 µM.

On to `COCCOc1cccc(-c2ccnc3c(C(=O)c4cccs4)cnn23)c1` [Example 264, [7-[3-(2-Methoxyethoxy)phenyl]pyrazolo[1,5-a]pyrimidin-3-yl]-2-thienyl-methanone], for which the IC50 was in the range of 1 to 10 µM.

With `O=C(NC1CCCC1)c1cccc(-c2ccnc3c(C(=O)c4cccs4)cnn23)c1` [Example 320, N-Cyclopentyl-3-[3-(2-thienylcarbonyl)pyrazolo[1,5-a]pyrimidin-7-yl]benzamide], the half-maximal inhibitory concentration (IC50) was less than 1 µM.

In the case of `CC(C)CNC(=O)c1cccc(-c2ccnc3c(C(=O)c4cccs4)cnn23)c1` [Example 318, N-Isobutyl-3-[3-(2-thienylcarbonyl)pyrazolo[1,5-a]pyrimidin-7-yl]benzamide], the IC50 is less than 1 µM.

The assay is the same for the next values; noted with them: Homo sapiens, 120 h; 80S14 p21-deficient cells, 5 days incubation, SRB; read-out: IC50 for 80SI4.
Consider `CCCCCCOC(=O)NCC(=O)Nc1cccc(-c2ccnc3c(C(=O)c4cccs4)cnn23)c1` [Example 122, hexyl 2-oxo-2-({3-[3-(thien-2-ylcarbonyl)pyrazolo[1,5-a]pyrimidin-7-yl]phenyl}amino)ethylcarbamate], for which the IC50 fell in the range of 1 to 10 µM.

Turning to `CCCCCCCCCCC(=O)Nc1cccc(-c2ccnc3c(C(=O)c4cccs4)cnn23)c1` [Example 142, N-{3-[3-(thien-2-ylcarbonyl)pyrazolo[1,5-a]pyrimidin-7-yl]phenyl}undecanamide], the IC50 fell in the range of 10 to 50 µM.

Consider `CC(C)OC(=O)NCC(=O)Nc1cccc(-c2ccnc3c(C(=O)c4cccs4)cnn23)c1` [Example 115, isopropyl 2-oxo-2-({3-[3-(thien-2-ylcarbonyl)pyrazolo[1,5-a]pyrimidin-7-yl]phenyl}amino)ethylcarbamate], for which the IC50 was in the range of 1 to 10 µM.

Regarding `O=C(COc1ccccc1)Nc1cccc(-c2ccnc3c(C(=O)c4cccs4)cnn23)c1` [Example 111, 2-phenoxy-N-{3-[3-(thien-2-ylcarbonyl)pyrazolo[1,5-a]pyrimidin-7-yl]phenyl}acetamide], the concentration for half-maximal inhibition (IC50) lay within 1 to 10 µM.

In the case of `O=C(Nc1cccc(-c2ccnc3c(C(=O)c4cccs4)cnn23)c1)c1ccc2ccccc2c1` [Example 104, N-{3-[3-(thien-2-ylcarbonyl)pyrazolo[1,5-a]pyrimidin-7-yl]phenyl}-2-naphthamide], the half-maximal inhibitory concentration (IC50) lay within 10 to 50 µM.

On to `CCCCC(CC)C(=O)Nc1cccc(-c2ccnc3c(C(=O)c4cccs4)cnn23)c1` (stereo not drawn) [Example 147, 2-ethyl-N-{3-[3-(thien-2-ylcarbonyl)pyrazolo[1,5-a]pyrimidin-7-yl}phenyl}hexanamide], for which the half-inhibitory concentration (IC50) lay in the range of 1 to 10 µM.

`O=C(Cc1ccccc1)Nc1cccc(-c2ccnc3c(C(=O)c4cccs4)cnn23)c1` [Example 105, 2-phenyl-N-{3-[3-(thien-2-ylcarbonyl)pyrazolo[1,5-a]pyrimidin-7-yl]phenyl}acetamide]: the concentration for half-maximal inhibition (IC50) was less than 1 µM.

Regarding `O=C(CNC(=O)OCCCCCl)Nc1cccc(-c2ccnc3c(C(=O)c4cccs4)cnn23)c1` [Example 119, 4-chlorobutyl 2-oxo-2-({3-[3-(thien-2-ylcarbonyl)pyrazolo[1,5-a]pyrimidin-7-yl]phenyl}amino)ethylcarbamate], the concentration for half-maximal inhibition (IC50) lay in the range of 10 to 50 µM.

For `O=C(CNC(=O)OCCCl)Nc1cccc(-c2ccnc3c(C(=O)c4cccs4)cnn23)c1` [Example 120, 2-chloroethyl-2-oxo-2-({3-[3-(thien-2-ylcarbonyl)pyrazolo[1,5-a]pyrimidin-7-yl]phenyl}amino)ethylcarbamate], the IC50 is 1 to 10 µM.

As to `C=CCNC(=O)Nc1cccc(-c2ccnc3c(C(=O)c4cccs4)cnn23)c1` [Example 7, N-allyl-N′-{3-[3-(thien-2-ylcarbonyl)pyrazolo[1,5-a]pyrimidin-7-yl]phenyl}urea], the 50% inhibitory concentration (IC50) is less than 1 µM.

Consider `CCC(CC)OC(=O)Nc1cccc(-c2ccnc3c(C(=O)c4cccs4)cnn23)c1` [Example 186, 1-ethylpropyl 3-[3-(thien-2-ylcarbonyl)pyrazolo[1,5-a]pyrimidin-7-yl]phenylcarbamate], for which the IC50 was less than 1 µM.

With `O=C(Nc1cccc(-c2ccnc3c(C(=O)c4cccs4)cnn23)c1)c1cnc2ccccc2c1` [Example 70, N-{3-[3-(thien-2-ylcarbonyl)pyrazolo[1,5-a]pyrimidin-7-yl]phenyl}quinoline-3-carboxamide], the IC50 was in the range of 1 to 10 µM.

Take `C#CCC(C)OC(=O)Nc1cccc(-c2ccnc3c(C(=O)c4cccs4)cnn23)c1` (stereo not drawn) [Example 183, 1-methylbut-3-ynyl 3-[3-(thien-2-ylcarbonyl)pyrazolo[1,5-a]pyrimidin-7-yl]phenylcarbamate]: the 50% inhibitory concentration (IC50) is less than 1 µM.

With `CC(C)COC(=O)NCC(=O)Nc1cccc(-c2ccnc3c(C(=O)c4cccs4)cnn23)c1` [Example 117, isobutyl 2-oxo-2-({3-[3-(thien-2-ylcarbonyl)pyrazolo[1,5-a]pyrimidin-7-yl]phenyl}amino)ethylcarbamate], the IC50 lay in the range of 1 to 10 µM.

For `Cc1ccccc1S(=O)(=O)Nc1cccc(-c2ccnc3c(C(=O)c4cccs4)cnn23)c1` [Example 33, 2-methyl-N-{3-[3-(thien-2-ylcarbonyl)pyrazolo[1,5-a]pyrimidin-7-yl]phenyl}benzenesulfonamide], the IC50 is less than 1 µM.

For `C=CCCOC(=O)Nc1cccc(-c2c(C)cnc3c(C(=O)c4cccs4)cnn23)c1` [Example 213, but-3-enyl 3-[6-methyl-3-(thien-2-ylcarbonyl)pyrazolo[1,5-a]pyrimidin-7-yl]phenylcarbamate], the half-maximal inhibitory concentration (IC50) lay within 10 to 50 µM.

In the case of `CCCCCCC(=O)Nc1cccc(-c2ccnc3c(C(=O)c4cccs4)cnn23)c1` [Example 151, N-{3-[3-(thien-2-ylcarbonyl)pyrazolo[1,5-a]pyrimidin-7-yl]phenyl}heptanamide], the IC50 fell in the range of 1 to 10 µM.

By IC50 is commonly meant the concentration that gives 50% inhibition.
